In patent US7491489B2 (priority 2004, dated 2009):
≈ marks a conversion by molar mass, not a printed value.

Assays:
SARS-CoV GZ50 strain [1] = system: SARS-CoV GZ50 strain
SARS-CoV GZ50 strain [2] = type: cell-based

Row | Structure (SMILES) | IC90 (peptide concentration that reduced the viral titer by 90% relative to untreated control) (SARS-CoV GZ50 strain [1]) | Released viral titer relative to untreated control (SARS-CoV GZ50 strain [1]) | Intracellular viral RNA levels (SARS-CoV GZ50 strain [2]) | Cytotoxic effects on peptide-treated cells (FRhK-4 cells)
1 | CC(C)C[C@H](NC(=O)[C@@H](N)C(C)C)C(=O)N[C@@H](Cc1ccc(O)cc1)C(=O)N[C@@H](CC(N)=O)C(=O)N[C@@H](CO)C(=O)N[C@H](C(=O)N[C@@H](Cc1ccccc1)C(=O)N[C@@H](Cc1ccccc1)C(=O)N[C@@H](CO)C(=O)N[C@H](C(=O)N[C@@H](Cc1ccccc1)C(=O)N[C@@H](CCCCN)C(=O)N[C@@H](CS)C(=O)N[C@@H](Cc1ccc(O)cc1)C(=O)NCC(=O)N[C@H](C(=O)N[C@@H](CO)C(=O)N[C@@H](C)C(=O)N[C@H](C(=O)N[C@@H](CCCCN)C(=O)O)[C@@H](C)O)C(C)C)[C@@H](C)O)[C@@H](C)O [P3] | >500 µg/mL |  |  | 
2 | CC[C@H](C)[C@H](NC(=O)[C@H](C)NC(=O)[C@@H](NC(=O)[C@H](CO)NC(=O)[C@@H](NC(=O)[C@H](CC(=O)O)NC(=O)[C@@H](NC(=O)[C@H](CS)NC(=O)[C@H](CC(N)=O)NC(=O)[C@@H](NC(=O)[C@H](CC(=O)O)NC(=O)[C@H](CCC(N)=O)NC(=O)[C@@H](N)Cc1ccc(O)cc1)C(C)C)[C@@H](C)O)C(C)C)[C@@H](C)O)C(=O)N[C@@H](Cc1c[nH]cn1)C(=O)N[C@@H](C)C(=O)N[C@@H](CC(=O)O)C(=O)N[C@@H](CCC(N)=O)C(=O)N[C@@H](CC(C)C)C(=O)N[C@H](C(=O)N1CCC[C@H]1C(=O)O)[C@@H](C)O [P6] | 113.0 µg/mL (≈ 51.6 µM) | 18 % of the control | reduced | 
3 | CC[C@H](C)[C@H](NC(=O)CNC(=O)[C@H](CO)NC(=O)[C@H](CC(C)C)NC(=O)[C@H](C)NC(=O)[C@H](CCCNC(=N)N)NC(=O)[C@H](CC(N)=O)NC(=O)[C@H](CC(C)C)NC(=O)[C@H](CCC(N)=O)NC(=O)[C@@H](NC(=O)[C@H](CS)NC(=O)[C@H](Cc1ccccc1)NC(=O)[C@H](CO)NC(=O)CNC(=O)[C@H](Cc1ccc(O)cc1)NC(=O)[C@@H](N)CCC(N)=O)[C@@H](C)O)C(=O)N[C@@H](C)C(=O)N[C@@H](C)C(=O)N[C@@H](CCC(=O)O)C(=O)N[C@@H](CCC(N)=O)C(=O)O [P8] | 24.9 µg/mL (≈ 11.5 µM) |  |  | None of the 10 peptide-treated cells exhibited cytotoxic effects
4 | CC[C@H](C)[C@H](NC(=O)[C@@H](NC(=O)CNC(=O)[C@H](CC(N)=O)NC(=O)[C@H](CCC(=O)O)NC(=O)[C@H](CC(=O)O)NC(=O)[C@H](Cc1ccc(O)cc1)NC(=O)[C@H](CCCCN)NC(=O)[C@H](CC(C)C)NC(=O)[C@H](CCSC)NC(=O)[C@H](Cc1ccccc1)NC(=O)[C@@H](NC(=O)[C@@H](NC(=O)[C@@H]1CCCN1)[C@@H](C)O)[C@@H](C)O)[C@@H](C)O)C(=O)N[C@H](C(=O)N[C@@H](CC(=O)O)C(=O)N[C@@H](C)C(=O)N[C@H](C(=O)N[C@@H](CC(=O)O)C(=O)N[C@@H](CS)C(=O)O)C(C)C)[C@@H](C)O [P2] | 112.5 ± 26.3 µg/mL (≈ 50.3 µM) | 18 % of the control | reduced | 
5 | CC[C@H](C)[C@H](NC(=O)[C@H](CO)NC(=O)[C@H](Cc1ccccc1)NC(=O)[C@H](CC(N)=O)NC(=O)[C@@H](NC(=O)[C@@H]1CCCN1C(=O)[C@@H](NC(=O)[C@H](C)NC(=O)[C@@H](NC(=O)[C@@H](NC(=O)[C@H](CC(N)=O)NC(=O)[C@H](CC(N)=O)NC(=O)[C@@H](N)CO)[C@@H](C)O)[C@@H](C)CC)[C@@H](C)CC)[C@@H](C)O)C(=O)N[C@@H](CO)C(=O)N[C@H](C(=O)N[C@H](C(=O)N[C@H](C(=O)N[C@@H](CCC(=O)O)C(=O)N[C@H](C(=O)N[C@@H](CCSC)C(=O)O)C(C)C)[C@@H](C)O)[C@@H](C)O)[C@@H](C)CC [P7] | >500 µg/mL |  |  | 
6 | CC[C@H](C)[C@H](NC(=O)[C@H](CCC(=O)O)NC(=O)[C@H](CO)NC(=O)[C@@H](NC(=O)[C@H](CCCCN)NC(=O)[C@@H]1CCCN1C(=O)[C@H](CC(=O)O)NC(=O)[C@H](CCCNC(=N)N)NC(=O)[C@@H](NC(=O)[C@H](CO)NC(=O)[C@H](CC(=O)O)NC(=O)[C@@H](NC(=O)[C@H](Cc1ccccc1)NC(=O)[C@H](CC(=O)O)NC(=O)[C@H](CO)NC(=O)[C@@H](NC(=O)[C@H](CC(=O)O)NC(=O)[C@@H](N)CCCNC(=N)N)C(C)C)[C@@H](C)O)C(C)C)[C@@H](C)O)C(=O)N[C@@H](CC(C)C)C(=O)N[C@@H](CC(=O)O)C(=O)O [P5] | >500 µg/mL |  |  | 
7 | CC[C@H](C)[C@H](NC(=O)CNC(=O)[C@H](CO)NC(=O)[C@@H](NC(=O)[C@@H](NC(=O)[C@H](Cc1ccc(O)cc1)NC(=O)[C@H](Cc1ccccc1)NC(=O)CNC(=O)[C@H](Cc1ccc(O)cc1)NC(=O)[C@H](CC(=O)O)NC(=O)[C@H](CC(N)=O)NC(=O)[C@H](CC(C)C)NC(=O)[C@@H]1CCCN1C(=O)[C@H](Cc1c[nH]c2ccccc12)NC(=O)[C@H](Cc1ccc(O)cc1)NC(=O)[C@H](CS)NC(=O)[C@H](CC(N)=O)NC(=O)[C@H](CC(C)C)NC(=O)[C@H](C)NC(=O)[C@@H]1CCCN1)[C@@H](C)O)[C@@H](C)O)C(=O)O [P4] | >500 µg/mL |  |  | 
8 | CC[C@H](C)[C@H](NC(=O)CN)C(=O)NCC(=O)N[C@H](C(=O)N[C@H](C(=O)N[C@@H](CCC(N)=O)C(=O)N[C@@H](CC(N)=O)C(=O)N[C@H](C(=O)N[C@@H](CC(C)C)C(=O)N[C@@H](Cc1ccc(O)cc1)C(=O)N[C@@H](CCC(=O)O)C(=O)N[C@@H](CC(N)=O)C(=O)N[C@@H](CCC(N)=O)C(=O)N[C@@H](CCCCN)C(=O)N[C@@H](CCC(N)=O)C(=O)N[C@H](C(=O)N[C@@H](C)C(=O)N[C@@H](CC(N)=O)C(=O)N[C@@H](CCC(N)=O)C(=O)N[C@@H](Cc1ccccc1)C(=O)O)[C@@H](C)CC)C(C)C)[C@@H](C)O)C(C)C [P9] | >500 µg/mL |  |  | 
9 | CC[C@H](C)[C@H](NC(=O)CNC(=O)[C@H](CC(C)C)NC(=O)[C@@H]1CCCN1C(=O)[C@H](CC(C)C)NC(=O)[C@H](CCCCN)NC(=O)[C@@H](N)Cc1ccccc1)C(=O)N[C@@H](CC(N)=O)C(=O)N[C@H](C(=O)N[C@H](C(=O)N[C@@H](CC(N)=O)C(=O)N[C@@H](Cc1ccccc1)C(=O)N[C@@H](CCCNC(=N)N)C(=O)N[C@@H](C)C(=O)N[C@H](C(=O)N[C@@H](CC(C)C)C(=O)N[C@H](C(=O)N[C@@H](C)C(=O)N[C@@H](Cc1ccccc1)C(=O)N[C@@H](CO)C(=O)O)[C@@H](C)O)[C@@H](C)CC)[C@@H](C)O)[C@@H](C)CC [P1] | >500 µg/mL |  |  | 
